Series [1] deals with Splenocyte. In words: Immunosuppressive activity in BALB/c mouse splenocytes assessed as inhibition of concanavalin A-stimulated T-cell proliferation incubated for 48 hrs by MTT assay. Type of series: functional, cell-based. On the technique in general: Tetrazolium assays rely on reduction of a dye to a coloured formazan, in cell work by metabolically active cells.
In series [2] the test system is Splenocyte. In words: Immunosuppressive activity in BALB/c mouse splenocytes assessed as inhibition of LPS-stimulated B-cell proliferation incubated for 48 hrs by MTT assay. Type of series: functional, cell-based.
Series [3] relates to Splenocyte. In words: Cytotoxicity against BALB/c mouse splenocytes at 50 uM incubated for 48 hrs by MTT assay. Type of series: cell-based.
Series [4] deals with T-cell. In words: Induction of apoptosis in ConA-induced mouse splenic T cells assessed as late apoptotic cells at 10 uM after 48 hrs by Annexin V-FITC/propidium iodide staining based flow cytometry analysis (reference value: 0.4 %). Type of series: functional.
Series [5] relates to T-cell. In words: Induction of apoptosis in ConA-induced mouse splenic T cells assessed as decrease in Bcl-2 protein expression after 48 hrs by Western blotting analysis. The note with it: dose 5-20 µM. Type of series: functional, cell-based.
For series [6], the system named is T-cell. In words: Induction of apoptosis in ConA-induced mouse splenic T cells assessed as increase in cytochrome C protein expression after 48 hrs by Western blotting analysis. The note with it: dose 5-20 µM. It is filed as functional, cell-based. (In general: In western blotting, separated proteins are transferred to a membrane and probed.)
Series [7] concerns T-cell. In words: Induction of apoptosis in ConA-induced mouse splenic T cells assessed as increase in cleaved caspase 9 protein expression after 48 hrs by Western blotting analysis. Type of series: functional, cell-based. The note with it: dose 5-20 µM.
Series [8] concerns T-cell. In words: Induction of apoptosis in ConA-induced mouse splenic T cells assessed as downregulation of JNK phosphorylation after 48 hrs by Western blotting analysis. The note with it: dose 5-20 µM. Type of series: functional, cell-based.
Series [9] relates to T-cell. In words: Induction of apoptosis in ConA-induced mouse splenic T cells assessed as decrease in Mcl-1 protein expression after 48 hrs by Western blotting analysis. Type of series: functional, cell-based. The note with it: dose 5-20 µM.
Series [10] relates to T-cell. In words: Induction of apoptosis in ConA-induced mouse splenic T cells assessed as decrease in Bcl-xL protein expression after 48 hrs by Western blotting analysis. Type of series: functional, cell-based. The note with it: dose 5-20 µM.
Series [11] concerns T-cell. In words: Induction of apoptosis in ConA-induced mouse splenic T cells assessed as increase in Bax protein expression after 48 hrs by Western blotting analysis. Type of series: functional, cell-based. The settings on record: dose 5-20 µM.
The subject of series [12] is T-cell. In words: Induction of apoptosis in ConA-induced mouse splenic T cells assessed as late apoptotic cells at 20 uM after 48 hrs by Annexin V-FITC/propidium iodide staining based flow cytometry analysis (reference value: 0.4 %). It is filed as functional. For orientation: Flow cytometry measures light scatter and fluorescence of single cells or particles in a stream.

For series [13], the system named is T-cell. In words: Induction of apoptosis in ConA-induced mouse splenic T cells assessed as early apoptotic cells at 20 uM after 48 hrs by Annexin V-FITC/propidium iodide staining based flow cytometry analysis (reference value: 6.9 %). Type of series: functional.
Series [14] deals with T-cell. In words: Induction of apoptosis in ConA-induced mouse splenic T cells assessed as increase in cleaved caspase 3 protein expression after 48 hrs by Western blotting analysis. It is filed as functional, cell-based. The settings on record: dose 5-20 µM.
The test system of series [15] is T-cell. In words: Induction of apoptosis in ConA-induced mouse splenic T cells assessed as early apoptotic cells at 10 uM after 48 hrs by Annexin V-FITC/propidium iodide staining based flow cytometry analysis (reference value: 6.9 %). It is filed as functional.
In series [16] the test system is T-cell. In words: Induction of apoptosis in ConA-induced mouse splenic T cells assessed as late apoptotic cells at 5 uM after 48 hrs by Annexin V-FITC/propidium iodide staining based flow cytometry analysis (reference value: 0.4 %). It is filed as functional.
The test system of series [17] is T-cell. In words: Induction of apoptosis in ConA-induced mouse splenic T cells assessed as early apoptotic cells at 5 uM after 48 hrs by Annexin V-FITC/propidium iodide staining based flow cytometry analysis (reference value: 6.9 %). It is filed as functional.
For series [18], the system named is T-cell. In words: Induction of apoptosis in ConA-induced mouse splenic T cells assessed as early apoptotic cells at 15 uM after 48 hrs by Annexin V-FITC/propidium iodide staining based flow cytometry analysis (reference value: 7.1 %). It is filed as functional.
The test system of series [19] is T-cell. In words: Induction of apoptosis in ConA-induced mouse splenic T cells assessed as late apoptotic cells at 15 uM after 48 hrs by Annexin V-FITC/propidium iodide staining based flow cytometry analysis (reference value: 0.6 %). It is filed as functional.
Series [20] has as its system T-cell. In words: Induction of apoptosis in ConA-induced mouse splenic T cells assessed as late apoptotic cells at 5 uM after 48 hrs by Annexin V-FITC/propidium iodide staining based flow cytometry analysis (reference value: 0.6 %). It is filed as functional.
Series [21] has as its system T-cell. In words: Induction of apoptosis in ConA-induced mouse splenic T cells assessed as early apoptotic cells at 5 uM after 48 hrs by Annexin V-FITC/propidium iodide staining based flow cytometry analysis (reference value: 7.1 %). It is filed as functional.
Series [22] deals with T-cell. In words: Induction of apoptosis in ConA-induced mouse splenic T cells assessed as late apoptotic cells at 1 uM after 48 hrs by Annexin V-FITC/propidium iodide staining based flow cytometry analysis (reference value: 0.6 %). It is filed as functional.
The subject of series [23] is T-cell. In words: Induction of apoptosis in ConA-induced mouse splenic T cells assessed as early apoptotic cells at 1 uM after 48 hrs by Annexin V-FITC/propidium iodide staining based flow cytometry analysis (reference value: 7.1 %). It is filed as functional.

`COc1cc(O)c2c(c1)/C=C/CC[C@H](O)[C@H](O)CCC[C@H](C)OC2=O`: the IC50 in [1] and in series [2] was > 50 µM in each case. The Activity entry in series [3] is “Non-Toxic”.

As to `COc1cc(O)c2c(c1)/C=C/C[C@H](O)[C@@H](O)C(=O)/C=C/C[C@H](C)OC2=O`, the IC50 in [1] is 24.1 µM; in series [2], 29.1 µM. The Activity result in series [3] is reported as “Non-Toxic”.

With `C[C@H](O)CCC[C@@H]1CCCC(=O)Cc2cc(O)cc(O)c2C(=O)O1`, the IC50 in series [1] and in series [2] was > 50 µM each time. Besides, the Activity entry in series [3] is reported as “Non-Toxic”.

As to `C[C@H](O)C/C=C/[C@@H]1CCCC(=O)Cc2cc(O)cc(O)c2C(=O)O1`, the Activity was 37.2% in series [4]; “Dose-Dependent Effect” in [5]; “Dose-Dependent Effect” in series [6]; “Dose-Dependent Effect” in series [7]; “Dose-Dependent Effect” in series [8]; “Dose-Dependent Effect” in [9]. For the same compound, the Activity entry is “Dose-Dependent Effect” in [10]; “Dose-Dependent Effect” in series [11]; 55.8% in series [12]; 8.9% in [13]; “Dose-Dependent Effect” in [14]; 11% in series [15]. The Activity entry was “Non-Toxic” in [3], 26.2% in series [16] and 12.1% in series [17]. Also, the 50% inhibitory concentration (IC50) came to 10.6 µM in series [1] and 10.3 µM in series [2].

In the case of `COc1cc(O)c2c(c1)/C=C/CC[C@H](O)C(=O)CCC[C@H](C)OC2=O`, the IC50 in series [1] and in series [2] was > 50 µM in each case. Further, the Activity entry in series [3] was “Non-Toxic”.

Turning to `COc1cc(O)c2c(c1)[C@H]1O[C@@H]1C[C@H](O)[C@H](O)C(=O)CCC[C@H](C)OC2=O`, the values for the IC50 in [1] and in series [2] were 8.1 µM and 8.5 µM, respectively. The Activity result in series [3] is on record as “Non-Toxic”.

Take `COc1c(C)c2c(c(O)c1C/C=C(\C)CCC(=O)OCCN1CCOCC1)C(=O)OC2` [MYCOPHENOLATE MOFETIL]: the IC50 in series [2] stood at 0.5 µM.

Turning to `C[C@H](O)C[C@@H]1CCCCCc2cc(O)cc(O)c2C(=O)O1`, the IC50 in [1] and in series [2] was > 50 µM each time. Moreover, in series [3], the Activity result is reported as “Non-Toxic”.

On to `COc1cc(O)c2c(c1)/C=C/C[C@H](O)[C@H](O)C(=O)CCC[C@H](C)OC2=O`, for which the Activity in series [18] is reported as 4.6%; in series [19] it was 59.1%; in [20] it was 32.9%; in [21], 5.8%; in [22] it was 26.5%; in [3] it was “Non-Toxic”. In addition, in series [23], the Activity stood at 9.1%. Also, the IC50 was 7.4 µM in series [1] and 6.4 µM in series [2].

`COc1cc(O)c2c(c1)/C=C/C[C@@H](O)[C@@H](O)C(=O)CCC[C@H](C)OC2=O`: the IC50 was 16.5 µM in [1] and 14.6 µM in series [2]. For the same compound, in [3], the Activity result is “Non-Toxic”.

Regarding `COc1cc(O)c2c(c1)/C=C/C[C@H](O)[C@@H](O)[C@@H](O)CCC[C@H](C)OC2=O`, the IC50 in [1] and in [2] was > 50 µM each time. In addition, the Activity entry in [3] is on record as “Non-Toxic”.

For `COc1cc(O)c2c(c1)/C=C/C[C@H](O)[C@H](O)C(=O)/C=C/C[C@H](C)OC2=O`, the IC50 turned out to be 6 µM in series [1] and 6.2 µM in [2]. The Activity entry in series [3] was “Non-Toxic”.

For `COc1cc(O)c2c(c1)/C=C/C[C@H](O)[C@@H](O)C(=O)CCC[C@H](C)OC2=O`, the IC50 in series [1] and in series [2] was > 50 µM in each case. Moreover, the Activity entry in series [3] is listed as “Non-Toxic”.

Consider `COc1cc(O)c2c(c1)/C=C/C[C@@H](O)[C@H](O)C(=O)/C=C/C[C@H](C)OC2=O`, for which the IC50 in [1] is 11.4 µM; in series [2] it was 6.8 µM. Besides, in series [3], the Activity result is “Non-Toxic”.

With `COc1cc(O)c2c(c1)/C=C/CCC(=O)[C@H](O)CCC[C@H](C)OC2=O`, the IC50 worked out at 25.1 µM in series [1] and 27.7 µM in series [2]. Further, in series [3], the Activity entry is given as “Non-Toxic”.

With `COc1cc(O)c2c(c1)/C=C/CCC(=O)[C@@H](O)CCC[C@H](C)OC2=O`, the IC50 in [1] and in [2] was > 50 µM each time. Further, the Activity entry in series [3] is “Non-Toxic”.

As to `COc1cc(O)c2c(c1)/C=C/C[C@H](O)[C@H](O)C(=O)C[C@H](O)C[C@H](C)OC2=O`, the IC50 was 18.8 µM in series [1] and 21.9 µM in series [2]. Besides, the Activity entry in series [3] was “Non-Toxic”.

As to `C[C@H]1C/C=C/[C@@H](O)[C@@H](O)CC/C=C/c2cc(O)cc(O)c2C(=O)O1` [AIGIALOMYCIN D], the IC50 in series [1] was 16.3 µM; in series [2], 18.4 µM. Besides, the Activity result in series [3] was “Non-Toxic”.

As to `COc1cc(O)c2c(c1)/C=C/C[C@@H](O)[C@@H](O)C(=O)/C=C/C[C@H](C)OC2=O`, the half-maximal inhibitory concentration (IC50) came out at 15.2 µM in series [1] and 11.8 µM in [2]. Moreover, the Activity result in series [3] is reported as “Non-Toxic”.

For `COc1cc(O)c2c(c1)/C=C/C[C@H](O)C(=O)CCCC[C@H](C)OC2=O`, the IC50 in series [1] and in series [2] was > 50 µM each time. The Activity result in series [3] is given as “Non-Toxic”.

For orientation: IC50 means the concentration at which inhibition is half-maximal.

For the origin of these results see ChEMBL document CHEMBL4813949, “Hypothemycin-Type Resorcylic Acid Lactones with Immunosuppressive Activities from a Podospora sp” (J Nat Prod, 2021).
